Laboratory results published in patent USRE34313E, “Pharmaceutical compositions” (priority 1983, dated 1993).
Like-named read-outs stand apart in the source and are kept apart here.

Tests used:
Apotransferrin = experiment: Ability of iron complexes to donate iron to apotransferrin; format: biochemical; conditions: complex 10^-4 M, apotransferrin 10^-4 M, tris hydrochloride pH 7.4, 37° C., 10 minutes
Method: Apotransferrin (10^-4 M) and the iron complex of 1-hydroxy-4-methoxypyrid-4-one (10^-4 M; prepared as described in Example 7) were incubated together in tris hydrochloride (50 mM, buffered to pH 7.4) at 37° C. for 10 minutes when a 1 ml aliquot was removed from the medium and added to a PD10 colum. 0.5 ml fractions were collected directly into scintillation vials for counting.

Mice = experiment: In vivo test of iron binding capacity: excretion of 59Fe in iron-loaded mice; conditions: control = 100% excretion
Method: Mice were injected intraperitoneally with iron dextran (2 mg) at weekly intervals over a four week period. Two weeks after the final injection, the mice were injected via the tail vein with ^59 Fe Lactoferrin (human lactoferrin, 1 mg per injection 2 μCi). The mice were then caged individually. After a ten day period, 1,4-hydroxypyrid-2-one was administered to groups of 8 mice at 10 mg per mouse either intraperitoneally or intragastrically (in each case 3 of the mice received only one dose whilst 5 received 2 doses at a 24 hour interval). The excretion of iron was recorded at either 12 or 24 hourly intervals over a three day period before and a two day period after administration of the compound. For comparative purposes, the procedure was repeated with a blank control and with desferrioxamine, also at 10 mg per mouse (the intraperitoneally treated mice receiving one dose of desferrioxamine and the intragastrically treated mice two doses at a 24 hour interval).
The results are shown in Table 4, being given on the basis of the control representing 100% excretion, and illustrate the particular advantage of the pyridones as compared with desferrioxamine for oral administration. […] However, this is not the case here, the large SD values being a consequence of the large range among the positive responses.

Horse spleen ferritin [1] = experiment: Mobilisation of iron from ferritin; format: biochemical; conditions: 3×10^-3 M pyridone, ferritin 10^-6 M, pH 7.4, dialysis
Method: Horse spleen ferritin (Sigma) was without further purification and its iron content was estimated spectrophotometrically at 420 nm. The ferritin solution in phosphate buffered saline (Dulbecco-OXOID, 10^-6 M, pH 7.4) was enclosed in a Visking dialysis tube and dialysed against a 3×10^-3 M buffered solution of one of various pyridones as indicated in Table 2. The absorption spectrum of the resulting iron(III) complex in the dialysis solution was recorded after 6 and 24 hours. For comparative purposes, the procedure was repeated using a blank control.

Human transferrin = experiment: Mobilisation of iron from transferrin; format: biochemical; conditions: 4×10^-3 M compound, 59Fe(III) transferrin 10^-5 M; for Percentage of iron removed from transferrin, 6 hours: tris HCl pH 7.4, 6 hours; for Percentage of iron removed from transferrin, 24 hours: tris HCl pH 7.4, 24 hours
Method: The solution was then dialysed against phosphate buffered saline for 24 hours. The ^59 Fe remaining in the dialysis tube was then […]. For comparative purposes, this procedure was repeated with desferrioxamine and EDTA.

[2] = log Ksol, affinity for iron(III); format: physicochemical
From the text: In order to solubilise iron(III) hydroxide, log Ksol must be greater than 0 and in order to remove iron from transferrin, log Ksol should be in excess of 6.0.

physchem = conditions: pH 7.4; for Partition coefficient Kpart, Iron complex [FeIII-(compound)3]: 100 uM; for logD at 100 µM: tris hydrochloride 20 mm
Method: Acid washed glassware is used throughout and, following mixing of 5 ml of the 10^-4 M aqueous solution with 5 ml n-octanol for 1 minute, the aqueous n-octanol mixture is centrifuged at 1,000 g for 30 seconds. The two resulting phases are separated for a concentration determination by spectrophotometry on each. For the free hydroxypyridones, the range 220-340 nm is used for concentration determinations whilst for the iron complexes, the range […] is used.

Horse spleen ferritin [3] = conditions: cited from earlier work
inverted rat jejunal sac = experiment: In vitro permeation of rat jejunal sac by iron complexes; conditions: uptake into serosal space of everted rat jejunal sac, 37° C., up to 1 hour, relative to ferric chloride as 1
Method: The iron uptake into the serosal space of the inverted rat jejunal sac was compared for various iron compounds. Rats (male Sprague Dawley, 60 g) were killed and the jejunum removed, everted and cut into three segments (4 cm length). The segments were tied at both ends and filled with Krebs Ringer buffer (0.2 ml) and incubated in Krebs Ringer buffer containing ^59 Fe complexes at 37° C. for periods up to 1 hour. The contents of the sac were counted for ^59 Fe and measured spectrophotometrically.

| SMILES | Percentage of iron removed from ferritin, 6 hours (Horse spleen ferritin [1]) [%] | Percentage of iron removed from ferritin, 24 hours (Horse spleen ferritin [1]) [%] | Percentage of iron removed from transferrin, 6 hours (Human transferrin) [%] | Percentage of iron removed from transferrin, 24 hours (Human transferrin) [%] | log Ksol [2] | Partition coefficient Kpart, Iron complex [FeIII-(compound)3] (physchem) | logD at 100 µM (physchem) | also measured |
| --- | --- | --- | --- | --- | --- | --- | --- | --- |
| COc1ccn([O-])c(=O)c1.COc1ccn([O-])c(=O)c1.COc1ccn([O-])c(=O)c1.[Fe+3] | – | – | – | – | – | – | – | iron removed from the iron complex (donated to apotransferrin) (Apotransferrin): over 90% |
| O=c1cc(O)ccn1O [1,4-dihydroxypyrid-2-one] | 22 | 54 | 80 | 91 | 9.9 | 0.04 | -1.4 | Excretion of 59Fe ± SD, Intraperitoneal Administration (Mice; 10 mg per mouse i.p.): 195 ± 57%; Excretion of 59Fe ± SD, Intragastric Administration (Mice; 10 mg per mouse intragastrically): 166 ± 40% |
| COCCOc1ccn(O)c(=O)c1 [1-hydroxy-4-(2'-methoxyethoxy)-pyrid-2-one] | 2 | 8 | 72 | 75 | – | 0.6 | -0.854 | – |
| COc1ccn(O)c(=O)c1 [1-hydroxy-4-methoxypyrid-2-one] | 13 | 46 | 70 | 71 | 11.3 | 4.85 | -0.824 | – |
| CC(=O)N(O)CCCCCNC(=O)CCC(=O)N(O)CCCCCNC(=O)CCC(=O)N(O)CCCCCN [Desferrioxamine, desferrioxamine, reference compound] | – | – | 17 | 22 | 6.0 | – | – | Percentage of iron removed from ferritin, 6 hours (Horse spleen ferritin [3]; 1 mM desferrioxamine, similar test from literature (Crichton et al)): 1.5% |
| O=C(O)CN(CCN(CC(=O)O)CC(=O)O)CC(=O)O [EDTA, ethylenediamine tetra-acetic acid, reference compound] | – | – | 27 | 67 | – | – | – | – |
| [Cl][Fe]([Cl])[Cl] [FeCl3, ferric chloride] | – | – | – | – | – | – | – | Relative Iron Uptake (inverted rat jejunal sac): 1 |
| O=C([O-])[C@H](O)[C@@H](O)[C@H](O)[C@H](O)CO.O=C([O-])[C@H](O)[C@@H](O)[C@H](O)[C@H](O)CO.[Fe+2] [Fe^II gluconate] | – | – | – | – | – | – | – | Relative Iron Uptake (inverted rat jejunal sac): 1.6 |
| O=C(NCCCCN(CCCNC(=O)c1cc(S(=O)(=O)O)cc(O)c1O)C(=O)c1cc(S(=O)(=O)O)cc(O)c1O)c1cc(S(=O)(=O)O)cc(O)c1O [LICAMS] | – | – | – | – | – | – | – | Percentage of iron removed from ferritin, 6 hours (Horse spleen ferritin [3]; 6 mM LICAMS + 12 mM ascorbic acid, similar test from literature (Tufano et al)): 7% |
| O=C(O)CN(CCN(CC(=O)O)CC(=O)O)CCN(CC(=O)O)CC(=O)O [diethylenetriamine pentaacetic acid, reference compound] | – | – | – | – | 2.0 | – | – | – |
